Source: ChEMBL document CHEMBL1134057, “Synthesis of polyamine derivatives having non-hypotensive Ca2 +-permeable AMPA receptor antagonist activity” (Bioorg Med Chem Lett, 2001)
pIC50: −log10 of the molar value.

Columns and labels:
[1] = biological target: Glutamate receptor ionotropic, AMPA (Rattus norvegicus, UniProt P19490+P19491+P19492+P19493)
Rattus norvegicus = organism: Rattus norvegicus; details: dose 3 mg/kg; route intravenous
Description: Change in systolic blood pressure(SBP) after intravenous administration of 3 mg/kg in rats compared with SBP before dosing

[2] = biological target: Glutamate receptor ionotropic, AMPA (Rattus norvegicus) (UniProt P19491+P19492+P19493+P19490); test: Antagonist activity for [Ca2+] permeable Ionotropic glutamate receptor AMPA expressed in Xenopus oocytes by injection of rat brain mRNA at 1 uM; format: functional, cell-based; details: Oocyte

Structure (SMILES) | pIC50 [1] | Delta SBP (Rattus norvegicus) | inhibition [2]
O=C(Cc1cccc2ccccc12)NCC(=O)N1CCC(CNCCCCNCC2CCNCC2)CC1 | 6.31 | -50 mmHg | 
CN1CCCC1CNCCCCNCC1CCN(C(=O)Cc2cccc3ccccc23)CC1 (stereo not given) |  | 13 mmHg | 41%
O=C(Cc1cccc2ccccc12)NCCCCCC(=O)N1CCC(CNCCCCNCC2CCNCC2)CC1 | 6.38 | -40 mmHg | 
CN1CCCC1CCNCCCCNCC1CCN(C(=O)Cc2cccc3ccccc23)CC1 (stereo not given) | 6.11 | -55 mmHg | 
NCCNCCCCNCC1CCN(C(=O)Cc2cccc3ccccc23)CC1 | 6.48 | -50 mmHg | 
O=C(Cc1cccc2ccccc12)N1CCC(CNCCCCNCC2CCN(c3ccncc3)CC2)CC1 | 6.77 | -43 mmHg | 
O=C(Cc1cccc2ccccc12)N1CCC(CNCCCCNCCN2CCOCC2)CC1 |  | 0 mmHg | 18%
O=C(Cc1cccc2ccccc12)N1CCC(CNCCCCNCC2CCCCN2)CC1 (stereo not given) | 5.96 | 0 mmHg | 
CN1CCC(CNCCCCNCC2CCN(C(=O)Cc3cccc4ccccc34)CC2)CC1 | 6.24 | -50 mmHg | 
NCCCNCCCCNCC1CCN(C(=O)Cc2cccc3ccccc23)CC1 | 6.49 | -35 mmHg | 
c1ccc2c(CCN3CCC(CNCCCCNCC4CCNCC4)CC3)cccc2c1 |  |  | 28%
O=C(Cc1cccc2ccccc12)N1CCC(CNCCCCNCCN2CCCCC2)CC1 | 6.72 | 5 mmHg | 
O=C(Cc1cccc2ccccc12)N1CCC(CNCCCCNCCCn2ccnc2)CC1 | 6.59 | -25 mmHg | 
O=C(Cc1cccc2ccccc12)N1CCC(CNCCCCNCC2CCNCC2)CC1 | 5.89 | -120 mmHg | 
CN1CCCCC1CNCCCCNCC1CCN(C(=O)Cc2cccc3ccccc23)CC1 (stereo not given) |  | 11 mmHg | 27%
O=C(Cc1cccc2ccccc12)N1CCC(CNCCCCNCC2CCCN2)CC1 (stereo not given) | 6.14 | 0 mmHg | 
O=C(Cc1cccc2ccccc12)N1CCC(CNCCCCNCC2CCCNC2)CC1 (stereo not given) | 6.09 | -58 mmHg | 
NC(=O)C[C@@H](NC(=O)Cc1cccc2ccccc12)C(=O)N1CCC(CNCCCCNCC2CCNCC2)CC1 | 6.57 | -75 mmHg | 
